From article PMC8428568, “Discovery of re-purposed drugs that slow SARS-CoV-2 replication in human cells” (PLoS Pathogens, 2021)
Counter-ions that a name gives are not always drawn. Like-named read-outs stand apart in the source and are kept apart here.

How the values were obtained:
[1] = tested on: SARS-CoV-2-ΔOrf7a-NLuc virus; experiment: microbe, parasite or virus in culture; format: cell-based; conditions: for Mean relative luminescence (n=4): HUH7 screen; for IC50: read-out: HUH7 IC50
[2] = tested on: HUH7 cells; conditions: HUH7 screen
[3] = tested on: recombinant NLuc; format: biochemical; conditions: for Relative Recombinant NLUC: recombinant NLuc activity relative to DMSO; for Reads Counts per second (read 1) / Reads Counts per second (read 4) / Reads Counts per second (read 3) / Reads Counts per second (read 2): recombinant NLuc; for Reads Counts per second (read 1): first read column; for Reads Counts per second (read 4): fourth read column; for Reads Counts per second (read 3): third read column
[4] = tested on: SARS-CoV-2-ΔOrf7a-NLuc virus; experiment: microbe, parasite or virus in culture; format: cell-based; conditions: for activity at 10 µM: Severe acute respiratory syndrome coronavirus 2, Vero, 72 h, read-out: Mean relative luminescence (n=4); for IC50: Severe acute respiratory syndrome coronavirus 2
[5] = tested on: Vero cells
[6] = tested on: SARS-CoV-2-ΔOrf7a-NLuc virus; experiment: Post-infection treatment: Vero cells infected 24 hrs with SARS-CoV-2-ΔOrf7a-NLuc, then compound for 48 hrs, bioluminescence; format: cell-based; conditions: for Post-infection at IC50: change in replication relative to DMSO, cells infected 24 hrs, then treated 48 hrs
[7] = Severe acute respiratory syndrome coronavirus 2, Huh-7
[8] = 1 = untreated, 0 = total inhibition
[9] = Vero screen, relative luminescence
[10] = Vero cells, 10 μM, 1 = DMSO-treated infected cells

Row | Compound | Mean relative luminescence (n=4) [1] | IC50 [1, 7] [nM] | PrestoBlue relative viability [2] | Relative Recombinant NLUC [3] | Reads Counts per second (read 1) [3] [Counts per second] | Reads Counts per second (read 4) [3] [Counts per second] | Reads Counts per second (read 3) [3] [Counts per second] | % activity in Vero 100PFU screen [4] [%] | activity at 10 µM [4, 8] [%] | IC50 ([4]; Vero cells) [nM] | Mean relative luminescence (n=4) [4, 9] | PrestoBlue relative viability [5, 10] | PrestoBlue relative viability ([5]; Vero screen) | Post-infection at IC50 [6] [%] | Reads Counts per second (read 2) [3] [Counts per second] | other results
1 | COC(=O)C1=C(C)NC(C)=C(C(=O)OCCN2CCN(C(c3ccccc3)c3ccccc3)CC2)C1c1cccc([N+](=O)[O-])c1 (centres unmarked) [Manidipine] | 0.1 | 2000 | 0.5396 | 0.6615 | 249924 | 251205 | 250350 | 12 | 10.9 | 7500 | 0.1086 | 1.036 | 1.036 | -50 | – | –
2 | C=C1CC[C@H](O)C/C1=C/C=C1\CCC[C@]2(C)[C@@H]([C@H](C)CCCC(C)C)CC[C@@H]12 [Vitamin D3] | 0.02567 | 3000 | 0.6418 | 0.9682 | 370629 | 364312 | 360711 | 12 | 9.68 | 10000 | 0.09678 | 1.049 | 1.049 | -30 | – | suppression of SARS-CoV-2 replication [1]: ≥ 85%; reduction of virus replication ([4]; Vero cells, 100PFU screen, 10 μM): ≥ 85%
3 | COC(=O)C1=C(C)NC(C)=C(C(=O)OCCN2CCN(C(c3ccccc3)c3ccccc3)CC2)C1c1cccc([N+](=O)[O-])c1.Cl.Cl (centres unmarked) [Manidipine 2HCl] | 0.04447 | – | 0.5726 | 0.6382 | 242466 | 239469 | 242968 | 12 | – | – | 0.1096 | 0.813 | 0.813 | -50 | – | IC50 [1]: 2500 nM; Mean relative luminescence (n=4) [4, 8]: 0.1096
4 | CCN(CC)Cc1cc(Nc2ccnc3cc(Cl)ccc23)ccc1O [Amodiaquine, Amodiaquine dihydrochloride dihydrate] | 0.01258 | 1000 | 0.7783 | 0.9146 | 351271 | 339282 | 344113 | 12 | 10.1 | 5000 | 0.1007 | 0.6404 | 0.6404 | -25 | 347518 | –
5 | O=C1C(O)=C([C@H]2CC[C@H](c3ccc(Cl)cc3)CC2)C(=O)c2ccccc21 [Atovaquone] | 0.05824 | 7500 | 1.15 | 0.5902 | 224278 | 216287 | 224646 | 4 | 0.959 | 3000 | 0.009591 | 1.55 | 1.55 | -25 | 226697 | –
6 | Cc1[nH]c2ccccc2c1CCNCc1ccc(/C=C/C(=O)NO)cc1 [Panobinostat] | 0.05897 | < 200 | 0.753 | 0.8963 | 330994 | 341728 | 343634 | 3.68 | 1.87 | < 200 | 0.01867 | 0.6021 | 0.6021 | -25 | – | effect on virus replication [1]: completely blocked replication of SARS-CoV-2 at all doses tested; effect on replication in cells already infected ([6]; Vero cells infected 24 hrs then treated 48 hrs): a more modest effect on replication
7 | COc1nc2ccc(Br)cc2cc1[C@@H](c1ccccc1)[C@@](O)(CCN(C)C)c1cccc2ccccc12 [Bedaquiline] | – | 5000 | – | 0.9285 | 348601 | 351646 | 347079 | 3.54 | 1.02 | 10000 | – | 0.8784 | – | -30 | 355872 | –
8 | CC(C)n1c(/C=C/C(O)CC(O)CC(=O)O)c(-c2ccc(F)cc2)c2ccccc21 (centres unmarked) [Fluvastatin Sodium] | 0.05448 | – | 1.3017 | 0.8994 | 344916 | 335899 | 339204 | 6 | 5.01 | – | 0.05005 | 0.5553 | 0.5553 | – | – | –
9 | CCN1CCN(Cc2ccc(Nc3ncc(F)c(-c4cc(F)c5nc(C)n(C(C)C)c5c4)n3)nc2)CC1 [LY2835219] | 0.07242 | 200 | 0.6043 | 0.9189 | 345999 | 348685 | 345910 | 3.32 | 2.68 | 1000 | 0.02684 | 0.5512 | 0.5512 | -40 | – | –
